Measurements: paper PMC6193938, “Characterization of a novel AICARFT inhibitor which potently elevates ZMP and has anti-tumor activity in murine models” (Scientific Reports, 2018)
Read-outs that look alike come from different tables or passages of the source.

System: panel of human cell lines
Test: In vitro proliferation assay, Cell Titer Glo, two doubling times, 298 cell lines
Assay type: cell-based
Details: Homo sapiens, read-out: ABS_IC50_VALUE
Source text: Cell Titer Glo measures ATP, thus the IC50s represent both the effect on purine production and cell proliferation, which are related. […] Folates are actively taken up in cells by reduced folate carrier (SLC19A1), proton-coupled folate transporter (SLC46A1), and the FOLR1 folate receptor[17]. Once inside the cell, folates are trapped by polyglutamation catalyzed by folylpolyglutamate synthetase (FPGS). […] Gene expression data for ATIC, GART, APRT, HPRT, FOLR1, SLC19A1, SLC46A1 & FPGS are shown in Fig. 2, since these genes were anticipated to predict sensitivity. […] The MDA-MB-231 cell line is reduced folate carrier (SLC19A1) negative due to epigenetic silencing.
Cells were cultured using recommended culture conditions unless noted otherwise (Supplemental Table 3). Cells were plated, dosed with compound and incubated at 37 °C for approximately 2 doubling times as determined for each cell line. Cell Titer Glo (Promega) assay was used to measure proliferation according to manufacturer’s recommendations by measuring luminescence with Flexstation3 (Molecular Devices) with 500 ms integration time. […] The % response was fit to a four-parameter logistic equation using ACTIVITYBASE 4.0 to determine the absolute IC50 values.
Cell Lines: Cell lines of adrenal gland, autonomic ganglia, biliary tract, blood ALL, blood AML, blood CML, blood hodgkin lymphoma, blood lymphoma, blood multiple myeloma, blood NHL, blood RAEB, bone, breast ER+, breast fibroblast, breast fibroblast mixed, breast HER2, breast normal, breast triple negative, cervix, CNS, endometrium, eye, fibroblast normal, kidney ns, kidney renal, large intestine, liver, liver normal, lung adenocarcinoma, lung ns, lung NSCLC, lung NSCLC mixed, lung SCLC, lung squamous, melanoma, melanoma normal, esophagus adenocarcinoma, esophagus ns, esophagus squamous, ovary, pancreas adenocarcinoma, pancreas ductal carcinoma, pancreas ns, pleura mesothelioma, prostate adenocarcinoma, prostate small cell, salivary gland, small intestine, soft tissue, stomach, testis, thyroid, thyroid squamous, umbilical vein endothelial cell normal, upper aerodigestive tract squamous, urinary tract ns, urinary tract transitional cell carcinoma, and vulva squamous origin were obtained from ATCC, CASTCC, CLS, DSMZ, ECACC, HSRRB, ICLC, JCRB, NCI, Riken and SNU cell banks. The murine A9 cell line was acquired from the ATCC (CCL-1.4).

O=c1[nH]ccc2cc(F)c(NS(=O)(=O)c3ccc(N4CC[C@@H](O)C4)s3)cc12 [LSN3213128, N-(6-Fluoro-1-oxo-1,2-dihydroisoquinolin-7-yl)-5-[(3R)-3-hydroxypyrrolidin-1-yl]thiophene-2-sulfonamide]
IC50 (HL-60, HL-60, haematopoietic and lymphoid tissue): > 20 µM | IC50 (HLE, liver): 15 µM | IC50 (HLF, liver): 9.35 µM | IC50 (HMCB, skin): 4.45 µM | IC50 (HPAF-II, pancreas): 11.1 µM | IC50 (HSC-2, HSC-2, upper aerodigestive tract): 1.28 µM | IC50 (HSC-3, HSC-3, upper aerodigestive tract): 7.22 µM | IC50 (HSC-4, HSC-4, upper aerodigestive tract): 2.95 µM | IC50 (HT1197, HT-1197, urinary tract): 0.37 µM | IC50 (HT-29, HT-29, large intestine): > 20 µM | IC50 (HT-144, HT-144, skin): > 20 µM | IC50 (HT-1080, HT-1080, soft tissue): 4 µM | IC50 (HT-1376, HT-1376, urinary tract): 0.49 µM | IC50 (Hs 294T, skin): > 20 µM | IC50 (Hs 606.T, breast): > 20 µM | IC50 (Hs 688(A).T, skin): > 20 µM | IC50 (Hs 695T, skin): > 20 µM | IC50 (Hs 739.T, breast): > 20 µM | IC50 (Hs 839.T, skin): > 20 µM | IC50 (Hs 940.T, skin): > 20 µM | IC50 (HuCCT-1, HuCCT1, biliary tract): 17.1 µM | IC50 (HuG1-N, stomach): 2.53 µM | IC50 (HuTu80, HUTU-80, small intestine): 0.83 µM | IC50 (Huh-7, HuH-7, liver): 12.5 µM | IC50 (IA-LM, lung): > 20 µM | IC50 (J82, urinary tract): > 20 µM | IC50 (JHH7, JHH-7, liver): 28.3 µM | IC50 (K562, K-562, haematopoietic and lymphoid tissue): 0.67 µM | IC50 (KALS-1, KALS-1, central nervous system): > 20 µM | IC50 (KE-97, KE-97, stomach): 1.09 µM | IC50 (KG-1, haematopoietic and lymphoid tissue): > 20 µM | IC50 (KLE, endometrium): > 20 µM | IC50 (KM12, KM12, large intestine): 2.05 µM | IC50 (KNS-42, KNS-42, central nervous system): > 20 µM | IC50 (KNS-62, KNS-62, lung): 16 µM | IC50 (KNS-81, central nervous system): > 20 µM | IC50 (KP-4, pancreas): 0.74 µM | IC50 (KU812, KU812, haematopoietic and lymphoid tissue): 0.08 µM | IC50 (KYSE-410, KYSE-410, oesophagus): 1.56 µM | IC50 (Kasumi-6, haematopoietic and lymphoid tissue): > 20 µM | IC50 (LOUCY, haematopoietic and lymphoid tissue): 1.76 µM | IC50 (LUDLU-1, LUDLU-1, lung): > 20 µM | IC50 (MCF7, MCF7, breast): 11.1 µM | IC50 (MDA-MB-157, MDA-MB-157, breast): > 20 µM | IC50 (MDA-MB-415, MDA-MB-415, breast): > 20 µM | IC50 (MDA-MB-436, MDA-MB-436, breast): > 20 µM | IC50 (MDA-MB-453, MDA-MB-453, breast): > 20 µM | IC50 (MDA-MB-468, MDA-MB-468, breast): 0.44 µM | IC50 (MEG-01, MEG-01, haematopoietic and lymphoid tissue): 0.29 µM | IC50 (MG-63, MG-63, bone): > 20 µM | IC50 (MKN-1, MKN1, stomach): > 20 µM | IC50 (MKN-45, MKN45, stomach): > 20 µM | IC50 (MKN-74, MKN74, stomach): > 20 µM | IC50 (MOLT-4, MOLT-4, haematopoietic and lymphoid tissue): 1.11 µM | IC50 (MSTO-211H, pleura): > 20 µM | IC50 (Malme-3M, skin): > 20 µM | IC50 (NCI-H23, NCI-H23, lung): 14.4 µM | IC50 (NCI-H28, NCI-H28, pleura): > 20 µM | IC50 (NCI-H69, NCI-H69, lung): 18.5 µM | IC50 (NCI-H82, NCI-H82, lung): 2.28 µM | IC50 (NCI-H209, NCI-H209, lung): 5.55 µM | IC50 (NCI-H226, NCI-H226, lung): 4.52 µM | IC50 (NCI-H358, NCI-H358, lung): 6.06 µM | IC50 (NCI-H441, NCI-H441, lung): > 20 µM | IC50 (NCI-H446, NCI-H446, lung): 1.68 µM | IC50 (NCI-H460, NCI-H460, lung): 0.97 µM | IC50 (NCI-H508, NCI-H508, large intestine): 13.1 µM | IC50 (NCI-H520, NCI-H520, lung): 9.66 µM | IC50 (NCI-H522, NCI-H522, lung): 9.92 µM | IC50 (NCI-H524, NCI-H524, lung): 11.3 µM | IC50 (NCI-H596, NCI-H596, lung): > 20 µM | IC50 (NCI-H647, NCI-H647, lung): 1.4 µM | IC50 (NCI-H650, NCI-H650, lung): 8.6 µM | IC50 (NCI-H660, NCI-H660, prostate): 7.16 µM
